Assays:
[1] = molecular target: Bcr-Abl; parameters: method as in PMID 23746084, PMID 28650650, PMID 25469771, PMID 21443205, PMID 17929792; details: in-house lead compounds, Figure 1; cited from earlier work
[2] = system: osteosarcoma; parameters: method as in PMID 17929792; details: cited from earlier work
[3] = molecular target: T1, Abl (Homo sapiens, UniProt P00519); assay: Abl enzymatic assay (ADP-Glo kinase assay); format: biochemical; details: for Ki: mean of at least three experiments, 30 μM ATP, read-out: Bcr-Abl Ki
T1 construct: purchased Merck-Millipore
Experimental: (§1) Src, Fyn, and Abl were purchased from Merck-Millipore. Reactions were performed according to the manufacturer’s instructions with minor modifications. All substrates were used at least at twice the concentration of apparent Km. In detail: Src reactions were performed using 500 μM Src-peptide (KVEKIGEGTYGVVYK), 100 μM ATP, and 0.00087% NP-40; Fyn reactions were performed using 360 μM Src-peptide (KVEKIGEGTYGVVYK), 200 μM ATP, and 0.0026% NP-40; Abl reactions were performed using 50 μM abltide (EAIYAAPFAKKK), 30 μM ATP, and 0.00087% NP-40. All reactions were performed using 10–50 ng of enzyme and 10% DMSO in 10 μL of kinase buffer (8 mM MOPS-NaOH pH7.0, 0.2 mM EDTA, 10 mM MgAc) at 30 °C for 10 min.
(§2) To avoid peptide adsorbing to the plastic surface, protein low-binding tubes were used. ADP-Glo kinase assay (Promega) was then used to detect kinase activity according to the manufacturer’s instructions with minor modifications. In detail, reactions were transferred to white 384 well-plates and stopped by adding 10 µL of ADP-Glo reagent (Promega) for 50 min at room temperature. A total of 20 μL of detection reagent (Promega) was then added for 30 min and the reaction read using a GloMax Discover microplate reader (Promega). Data were plotted using GraphPad Prism 5.0. IC50 values were obtained according to Equation (1):v = V/{1 + (I/IC50)} (1) where v is the measured reaction velocity, V is the apparent maximal velocity in the absence of inhibitor, I is the inhibitor concentration, and IC50 is the 50% inhibitory dose. Compounds tested were assumed to act as fully ATP-competitive inhibitors. Therefore, Ki values were calculated according to Equation (2):Ki = IC50/(1+ […]) (2) where Ki is the affinity of the inhibitor to the enzyme, S is the ATP concentration, and Km is the affinity of ATP calculated according to the Michaelis–Menten equation.

[4] = molecular target: T2, Src (Homo sapiens, UniProt P12931); assay: Src enzymatic assay (ADP-Glo kinase assay); format: biochemical; details: for Ki: mean of at least three experiments, 100 μM ATP
T2 construct: purchased Merck-Millipore
Experimental: as §1, §2

[5] = system: 32D-T315I CML cells; details: mice inoculated with 32D-T315I CML cells; cited from earlier work
[6] = system: NB; parameters: method as in PMID 28650650, PMID 25469771; details: cited from earlier work
[7] = system: GBM; parameters: method as in PMID 28650650, PMID 25469771; details: cited from earlier work
[8] = system: GBMSC83 cells; assay: Cell death analysis, Annexin V-PI cytofluorimetry after IR, GBMSC83; format: cell-based; details: 1 µM pre-treatment 24 h, IR 10 Gy, 48 h after IR, vs control
Experimental: GBMSC83 cells were pretreated with 1 µM SI388 or 1 µM DAS, or DMSO as a control, for 24 h and then irradiated (10 Gy). After 48 h from IR, cytofluorimetric analysis of AnnexinV-PI staining was performed.
1 × 10^6 cells were analyzed for cell death 48 h from ionizing radiation (10 Gy) upon staining with Annexin V-APC-propidium iodide (PI) kit, according to manufacturer instructions (eBioscience™ Annexin V apoptosis detection kits, ThermoFisher Scientific, Waltham, MA, USA). Unstained samples were used as the control. CytoFLEX S (Beckman Coulter, Milan, Italy) instrument was used to quantify the double staining. Quality control was evaluated using CytoFLEX Daily QC Fluorospheres (Beckman Coulter). CytExpert version 2.2 software (Beckman Coulter) was used to analyze FCS files. Dead cells were graphed as fold change to control conditions.

[9] = system: T98G cells; assay: MTS assay after ionizing radiation, T98G; format: cell-based; details: 1 µM pre-treatment 24 h, IR 10 Gy, 48 h after IR, statistically significant
Experimental: (§3) To this aim, T98G and U251 cells were pre-incubated or not with SI388 for 24 h and then irradiated (10 Gy).
(§4) Cells were plated in 96 multiwells (1000 cells/well) in 100 µL of the complete medium. The following day, after 24 h of starvation, the cells were treated with DMSO, dasatinib or SI388 at different concentrations (10 nM, 1 µM, 25 µM). After 72 h, cells were treated with tetrazolium (Promega) for 1–2 h. The quantity of formazan product is directly proportional to the number of living cells in the culture. The plate is then read with a plate reader measuring the absorbance of 490 nm for the different conditions.

[10] = system: GBMSC83 cells; assay: Neurosphere formation, cell counting and sphere size, GBMSC83; format: cell-based; details: 1 µM, 72 h, vs control
Experimental: GBMSC83 cells were seeded at the density of 1 × 10^4 cells/well in a 96-well ultralow attachment plate, and the following day they were treated with SI388 1 µM or dasatinib 1 µM. After 72 h from treatment, cells were stained with Hoechst 33,342 (Thermo Fisher Scientific) and images were acquired with Fluorescence microscopy (ZEISS) and processed with Fiji version 2.3. Hoechst positive nuclei were counted by particle detection instrument of ComDet Plugin of Fiji. The bright fields were acquired and processed by Cell Profiler version 2.1.1 to measure spheres’ diameter and reported as the fold change from the control condition.

[11] = system: U251 cells; assay: Clonogenic assay, U251; format: cell-based; details: 10 nM, 1 µM, 25 µM for 24 h, colonies after 15 days
Experimental: (§5) To further characterize the ability of SI388 to inhibit tumor growth, we performed clonogenic assays using T98G and U251 cell lines. Cells were starved and treated for 24 h with increasing concentration (10 nM, 1 µM, and 25 µM) of SI388 or DAS. The ability of single cells to proliferate and produce colonies was evaluated after 15 days, both in control conditions (treated with DMSO) and after treatment with different Src inhibitors.
(§6) For colony formation, control and irradiated (5 Gy) cells were seeded at the concentration of 1000 cells/dish in 6-well culture plates and incubated at 37 °C, 5% CO2 for 10–15 days.
(§7) Crystal violet solution (10% (v/v) methanol and 0.5% Crystal Violet) was used to fix and stain colonies, upon 20 min incubation. The stained colonies (>50 cells) were counted under a microscope or using Image “Colonyarea” plugin. Data were expressed as the mean and SD of three independent experiments.

[12] = molecular target: T3, Fyn (Homo sapiens, UniProt P06241); assay: Fyn enzymatic assay (ADP-Glo kinase assay); format: biochemical
T3 construct: purchased Merck-Millipore
Experimental: as §1, §2

[13] = system: U251 cells; assay: MTS cell viability assay, U251; format: cell-based; details: 72 h, 10 nM, 1 µM, 25 µM
Experimental: (§8) Next, the ability of SI388 to inhibit cell viability was evaluated using an MTS assay.
as §4

[14] = system: U251 cells; assay: MTS assay after ionizing radiation, U251; format: cell-based; details: 1 µM pre-treatment 24 h, IR 10 Gy, 48 h after IR, not statistically significant
Experimental: as §3, §4

[15] = system: Src phosphorylation on Tyr416 in GBMSC83 cells; assay: Immunoblotting of pY416-Src in GBMSC83 cells; format: cell-based; details: 1 µM, 24 h
Experimental: (§9) Cell extracts were prepared in RIPA (50 mM Tris-HCl pH 8.0, 150 mM NaCl, 1% NP40, 1 mM EGTA, 1 mM EDTA, 0.25% sodium deoxycholate) or IP buffer (50 mM Tris–HCl pH 7.5, 250 mM NaCl, 1% NP-40, 5 mM EDTA, 5 mM EGTA) supplemented with protease and phosphatase inhibitors (Roche Diagnostic, Mannheim, Germany). For immunoblotting, 25–30 µg of protein was separated by sodium dodecyl sulfate (SDS) polyacrylamide gel electrophoresis (PAGE), blotted onto nitrocellulose membrane, and detected with specific antibodies.

[16] = system: Src phosphorylation on Tyr416 in U251 cells; assay: Immunoblotting of pY416-Src in U251 cells; format: cell-based; details: 10 nM and 1 µM, 24 h, vs DMSO
Experimental: Dasatinib (Sigma Aldrich, DAS, Merck Millipore, Burlington, MA, USA), SI388 and SI83 were used at different concentration (10 nM, 1 µM or 25 µM) for 24 h upon serum deprivation. DMSO (Sigma Aldrich) was used as the control.
as §9

[17] = system: T98G cells; assay: MTS cell viability assay, T98G; format: cell-based; details: 72 h, 10 nM, 1 µM, 25 µM
Experimental: as §8, §4

[18] = system: T98G cells; assay: Clonogenic assay, T98G; format: cell-based; details: 10 nM, 1 µM, 25 µM for 24 h, colonies after 15 days
Experimental: as §5, §6, §7

T1 sequence (P00519 whole entry, species assumed): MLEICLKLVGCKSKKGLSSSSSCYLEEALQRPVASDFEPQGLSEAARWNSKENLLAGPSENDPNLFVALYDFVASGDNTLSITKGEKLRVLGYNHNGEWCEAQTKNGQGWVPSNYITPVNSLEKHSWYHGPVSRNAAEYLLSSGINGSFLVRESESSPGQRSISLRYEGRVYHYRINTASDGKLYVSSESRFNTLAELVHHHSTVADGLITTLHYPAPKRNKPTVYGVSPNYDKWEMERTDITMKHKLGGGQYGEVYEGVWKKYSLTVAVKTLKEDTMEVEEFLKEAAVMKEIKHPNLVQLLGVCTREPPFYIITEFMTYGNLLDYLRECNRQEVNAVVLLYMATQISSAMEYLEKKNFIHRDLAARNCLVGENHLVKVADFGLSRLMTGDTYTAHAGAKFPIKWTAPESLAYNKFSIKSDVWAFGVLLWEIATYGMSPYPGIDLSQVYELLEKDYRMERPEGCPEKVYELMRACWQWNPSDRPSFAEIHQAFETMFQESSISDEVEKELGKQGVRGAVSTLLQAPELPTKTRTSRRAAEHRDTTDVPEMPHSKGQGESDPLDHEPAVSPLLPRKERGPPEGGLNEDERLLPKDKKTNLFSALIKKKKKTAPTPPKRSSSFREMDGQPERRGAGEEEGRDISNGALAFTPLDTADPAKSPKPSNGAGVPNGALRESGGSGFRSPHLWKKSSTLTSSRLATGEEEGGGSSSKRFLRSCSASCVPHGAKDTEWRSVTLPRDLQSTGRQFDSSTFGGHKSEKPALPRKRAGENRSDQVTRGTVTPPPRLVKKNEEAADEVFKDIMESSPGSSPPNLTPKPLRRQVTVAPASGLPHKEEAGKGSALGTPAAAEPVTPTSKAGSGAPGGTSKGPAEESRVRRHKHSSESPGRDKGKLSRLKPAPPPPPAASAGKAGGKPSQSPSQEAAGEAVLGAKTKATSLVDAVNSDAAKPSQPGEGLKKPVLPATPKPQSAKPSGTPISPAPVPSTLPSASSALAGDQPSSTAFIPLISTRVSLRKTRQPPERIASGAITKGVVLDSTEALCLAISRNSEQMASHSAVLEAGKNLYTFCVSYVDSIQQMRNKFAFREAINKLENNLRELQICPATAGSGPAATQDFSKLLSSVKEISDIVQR
T2 sequence (P12931 whole entry, species assumed): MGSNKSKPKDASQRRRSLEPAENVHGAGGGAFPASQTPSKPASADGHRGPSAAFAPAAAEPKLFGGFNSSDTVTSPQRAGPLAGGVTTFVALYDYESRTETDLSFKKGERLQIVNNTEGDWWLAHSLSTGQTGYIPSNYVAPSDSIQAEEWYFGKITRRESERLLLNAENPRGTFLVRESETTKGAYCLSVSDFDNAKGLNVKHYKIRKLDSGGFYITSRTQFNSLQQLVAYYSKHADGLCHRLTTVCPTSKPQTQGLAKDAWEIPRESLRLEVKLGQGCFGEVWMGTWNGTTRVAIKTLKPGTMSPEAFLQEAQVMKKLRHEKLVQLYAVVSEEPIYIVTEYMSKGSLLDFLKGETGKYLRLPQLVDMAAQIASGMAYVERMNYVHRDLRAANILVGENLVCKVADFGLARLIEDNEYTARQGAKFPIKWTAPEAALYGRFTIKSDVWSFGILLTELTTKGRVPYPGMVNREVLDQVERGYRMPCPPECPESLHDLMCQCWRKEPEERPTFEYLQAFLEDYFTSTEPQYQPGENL
T3 sequence (P06241 whole entry, species assumed): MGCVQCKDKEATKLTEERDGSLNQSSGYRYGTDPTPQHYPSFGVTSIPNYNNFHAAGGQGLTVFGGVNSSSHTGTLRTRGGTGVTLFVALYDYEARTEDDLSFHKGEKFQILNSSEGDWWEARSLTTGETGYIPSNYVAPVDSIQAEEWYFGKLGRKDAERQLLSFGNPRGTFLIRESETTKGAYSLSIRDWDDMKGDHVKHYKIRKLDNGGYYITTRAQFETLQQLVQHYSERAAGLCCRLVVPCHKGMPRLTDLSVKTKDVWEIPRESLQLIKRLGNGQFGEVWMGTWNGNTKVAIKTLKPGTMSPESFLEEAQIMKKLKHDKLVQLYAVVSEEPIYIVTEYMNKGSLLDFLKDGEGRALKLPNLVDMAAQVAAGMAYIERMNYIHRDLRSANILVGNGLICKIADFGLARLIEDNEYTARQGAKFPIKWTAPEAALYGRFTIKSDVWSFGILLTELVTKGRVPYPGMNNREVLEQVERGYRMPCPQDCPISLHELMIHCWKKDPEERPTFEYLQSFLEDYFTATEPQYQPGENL

Structure (SMILES) | Ki [1] [nM] | Ki [3] [nM] | Ki [4] [nM] | Percentage of cell death after IR (AnnexinV-PI) [8] | Mean neurosphere diameter [10] | Number of cells per sphere [10] | Colony formation (cell growth and proliferation) [11] | Colony formation (cell growth and proliferation) [18] | further results
CSc1nc(Nc2cccc(Cl)c2)c2cnn(CC(Cl)c3ccccc3)c2n1 (stereo not drawn) [1a, reference compound] | 600 | 600 | 600 |  |  |  |  |  | Activity in xenograft mouse model of osteosarcoma [2]: active
ClC(Cn1ncc2c(Nc3ccccc3)ncnc21)c1ccc(Br)cc1 (stereo not drawn) [1b] |  |  |  |  |  |  |  |  | Reduction of tumor volume [5]: more than 50%
ClC(Cn1ncc2c(Nc3cccc(Br)c3)nc(SCCN3CCOCC3)nc21)c1ccccc1 (stereo not drawn) [1c] | 120 |  |  |  |  |  |  |  | Activity in in vivo model of NB [6]: showed activity; Activity in in vivo model of GBM [7]: showed activity
CSc1nc(Nc2ccccc2Cl)c2cnn(CC(Cl)c3ccccc3)c2n1 (stereo not drawn) [2a, 1-(2-Chloro-2-phenylethyl)-N-(2-chlorophenyl)-6-(methylthio)-1H-pyrazolo[3,4-d]pyrimidin-4-amine] |  | 450 ± 290 | 423 ± 93 | significantly increased the percentage of cell death | overall reduced diameter of the spheres | reduced average number of cells per sphere | impaired cell growth and proliferation in a dose-dependent manner | impaired cell growth and proliferation in a dose-dependent manner | Sensitivity to IR (inhibition of cell viability, MTS) [9]: increases the sensitivity to IR; inhibition at 10 µM ([12]; 10 µM): 90.7%; Ki ([12]; mean of at least three experiments, 200 μM ATP): 419 ± 75 nM; Cell viability (MTS) [13]: significantly impaired cell viability; Sensitivity to IR (inhibition of cell viability, MTS) [14]: increases the sensitivity to IR; Phosphorylation of Src on Tyr416 [15]: significant reduction in phosphorylation of Src on Tyr416; Src phosphorylation on Tyr416 (pY416-Src) [16]: reduction in Src phosphorylation on Tyr416; inhibition at 10 µM ([3]; 10 µM): 72%; Cell viability (MTS) [17]: significantly impaired cell viability; inhibition at 10 µM ([4]; 10 µM): 90%
Cc1nc(Nc2ncc(C(=O)Nc3c(C)cccc3Cl)s2)cc(N2CCN(CCO)CC2)n1 [dasatinib, reference compound] |  |  |  | significantly increased the percentage of cell death | overall reduced diameter of the spheres | reduced average number of cells per sphere | impaired cell growth and proliferation in a dose-dependent manner | impaired cell growth and proliferation in a dose-dependent manner | 

Source: publication PMC10384936, “Identification and Biological Characterization of the Pyrazolo[3,4-d]pyrimidine Derivative SI388 Active as Src Inhibitor” (Pharmaceuticals, 2023)
